Assay results as given in US20220017501A1, “MICROBIOCIDAL THIAZOLE DERIVATIVES” (SYNGENTA PARTICIPATIONS AG, priority 2018, published 2022).

Key:
[1] = assay type: physicochemical; conditions: for Solubility in water: pH 7.2
Procedure: Saturated solutions of test compounds were prepared in either aqueous buffer solutions (10 mM mixed phosphate, pH 7.20) or in heptane. Typically 1 mg of test compound in a 2 dram vial with 1 mL of buffer or heptane was left overnight (20 hours) on a roller shaker after an initial 20 minute period in a sonic bath. Saturated samples were then filtered through Millex-HV 0.45 micron syringe driven filters (aqueous or non-aqueous version dependent on solvent). […] Protocol variations included pre-saturation of the filters for compounds expected to have very low solubility, and centrifugation of the saturated samples for oils.

[2] = Photostability, thin-film irradiation (Atlas Suntest); assay type: physicochemical; conditions: thin film on glass, filtered xenon lamp 750 W/m2; time for first 50% loss
Procedure: Throughout the following description, LogP means logarithm of the partition coefficient, ppm means parts per million, and T50 represents the half-time of the compound under irradiation conditions.
Photostability tests were carried out by irradiation of thin-film deposits of compounds and 20 formulations on glass surfaces, using a filtered xenon lamp system (Atlas Suntest) which reproduces the spectrum and intensity of sunlight. The spectral output power of the Suntest was set to 750 W/m2, which is the typical daily maximum irradiance level at noon (UK, midsummer).
Test compounds were typically dissolved in HPLC grade methanol to give 1 g/L stock solutions. Alternatively, formulated compounds were suspended in water at the same concentration. 2 μL droplets of test solutions were spotted onto microscope cover slips in a 3D printed holder, allowed to dry then irradiated in the Suntest for varying times. […] Solutions were analysed by reverse phase HPLC, typically using a Waters UPLC system with Photodiode Array (PDA) and Waters columns (BEH C18, 100×2.1mm×1.7 μm) using mixed aqueous:acetonitrile mobile phase, acidifed with 0.2% formic acid. Peak detection was at the optimum wavelength for each candidate compound and PDA peak areas were used for quantification. […]

physchem = conditions: pH 7
Pyrenophora teres = Pyrenophora teres / barley / leaf disc preventative (net blotch); assay type: in vivo; conditions: foliar, barley leaf segments, compared to untreated control
Procedure: Example B14: Pyrenophora Teres/Barley/Leaf Disc Preventative (Net Blotch) Barley leaf segments cv. Hasso are placed on agar in a multiwell plate (24-well format) and sprayed with the formulated test compound diluted in water. The leaf […] inoculated with a spore suspension of the fungus 2 days after application. The inoculated leaf segments are incubated at 20° C. and 65% rh under a light regime of 12 h light/12 h darkness in a climate cabinet and the activity of a compound is assessed as disease control compared to untreated when an appropriate level of disease damage appears in untreated check leaf segments (5-7 days after application). […] […].23.

[3] = test system: Mycosphaerella arachidis (Cercospora arachidicola); test: Mycosphaerella arachidis (Cercospora arachidicola) / liquid culture (early leaf spot); assay type: cell-based; conditions: growth inhibition photometrically 4-5 days after application, read-out: control of Mycosphaerella arachidis
Procedure: (§1) Example B8: Mycosphaerella Arachidis (Cercospora Arachidicola)/Liquid Culture (Early Leaf Spot) Conidia of the fungus from cryogenic storage are directly mixed into nutrient broth (PDB potato dextrose broth). After placing a (DMSO) solution of test compound into a microtiter plate (96-well format), the nutrient broth containing the fungal spores is added. The test plates are incubated at 24° C. and the inhibition of growth is determined photometrically 4-5 days after application. […] […].23.

[4] = test system: Blumeria graminis f. sp. tritici (Erysiphe graminis f. sp. tritici); test: Blumeria graminis f. sp. tritici / wheat / leaf disc preventative (powdery mildew on wheat); assay type: in vivo; conditions: foliar, wheat leaf segments, compared to untreated control
Procedure: Example B4: Blumeria Graminis f. sp. Tritici (Erysiphe Graminis f. sp. Tritici)/Wheat/Leaf Disc Preventative (Powdery Mildew on Wheat) Wheat leaf segments cv. Kanzler are placed on agar in a multiwell plate (24-well format) and sprayed with the formulated test compound diluted in water. The leaf disks are inoculated by shaking powdery mildew infected plants above the test plates 1 day after application. The inoculated leaf disks are incubated at 20° C. and 60% rh under a light regime of 24 h darkness followed by 12 h light/12 h darkness in a climate chamber and the activity of a compound is assessed as percent disease control compared to untreated when an appropriate level of disease damage appears on untreated check leaf segments (6-8 days after application). […].23.

[5] = test system: Glomerella lagenarium (Colletotrichum lagenarium); test: Glomerella lagenarium (Colletotrichum lagenarium) / liquid culture (anthracnose); assay type: cell-based; conditions: Colletotrichum orbiculare, growth inhibition photometrically 3-4 days after application, read-out: control of Glomerella lagenarium
Procedure: Example B3: Glomerella Lagenarium (Colletotrichum Lagenarium)/Liquid Culture (Anthracnose) Conidia of the fungus from cryogenic storage are directly mixed into nutrient broth (PDB potato dextrose broth). After placing a (DMSO) solution of test compound into a microtiter plate (96-well format), the nutrient broth containing the fungal spores is added. The test plates are incubated at 24° C. and the inhibition of growth is measured photometrically 3-4 days after application.

[6] = test system: Magnaporthe grisea (Pyricularia oryzae); test: whole plant or invertebrate; assay type: in vivo; conditions: foliar, read-out: control of Magnaporthe grisea
Fusarium culmorum = assay type: in vivo; conditions: 200 ppm; wheat spikelets, preventative; compared to untreated control
[7] = test system: Monographella nivalis (Microdochium nivale); test: Monographella nivalis (Microdochium nivale) / liquid culture (foot rot cereals); assay type: cell-based; conditions: growth inhibition photometrically 4-5 days after application, read-out: control of Monographella nivalis
Procedure: as §1, with “B7: Monographella Nivalis (Microdochium Nivale)/Liquid” for “B8: Mycosphaerella Arachidis (Cercospora Arachidicola)/Liquid”, “(Foot Rot Cereals)” for “(Early Leaf Spot)”

[8] = test system: Mycosphaerella graminicola (Septoria tritici); test: Mycosphaerella graminicola (Septoria tritici) / liquid culture (Septoria blotch); assay type: cell-based; conditions: Zymoseptoria tritici, growth inhibition photometrically 4-5 days after application, read-out: control of Mycosphaerella graminicola
Procedure: as §1, with “B16:” for “B8:”, “Graminicola (Septoria Tritici)/Liquid” for “Arachidis (Cercospora Arachidicola)/Liquid”, “(Septoria Blotch)” for “(Early Leaf Spot)”

[9] = test system: Puccinia recondita f. sp. tritici; test: Puccinia recondita f. sp. tritici / wheat / leaf disc preventative (brown rust); assay type: in vivo; conditions: foliar, wheat leaf segments, preventative (inoculated 1 day after application), compared to untreated control, read-out: control of Puccinia recondite f. sp. tritici
Procedure: Example B12: Puccinia Recondita f. sp. Tritici/Wheat/Leaf Disc Preventative (Brown Rust) Wheat leaf segments cv. Kanzler are placed on agar in multiwell plates (24-well format) and sprayed with the formulated test compound diluted in water. The leaf disks are inoculated with a spore suspension of the fungus 1 day after application. The inoculated leaf segments are incubated at 19° C. and 75% rh under a light regime of 12 h light/12 h darkness in a climate cabinet and the activity of a compound is assessed as percent disease control compared to untreated when an appropriate level of disease damage appears in untreated check leaf segments (7-9 days after application). […] […].23.

Structure (SMILES)	Solubility in heptane [1] [ppm]	Solubility in water [1] [ppm]	Photostability T50 [2] [h]	chromatographic logP (physchem)	pest or weed control at 200 ppm (Pyrenophora teres) [%]	inhibition of growth at 20 ppm [3] [%]	pest or weed control at 200 ppm [4] [%]	inhibition of growth at 20 ppm [5] [%]	pest or weed control at 200 ppm [6] [%]	control of Fusarium culmorum (Fusarium culmorum)	inhibition of growth at 20 ppm [7] [%]	inhibition of growth at 20 ppm [8] [%]	pest or weed control at 200 ppm [9] [%]	melting point [°C]
Cc1sc(Nc2cc(F)nc(F)c2)nc1C(=O)NC1CCC1(C)C (stereo not drawn) [Compound E-0, 2-[(2,6-difluoro-4-pyridyl)amino]-N-(2,2-dimethylcyclobutyl)-5-methyl-thiazole-4-carboxamide, reference compound]	4.1	0.70	3.5	5.08	–	–	–	–	–	–	–	–	–	–
Cc1sc(N(C#N)c2cc(F)nc(F)c2)nc1C(=O)NC1CCC1(C)C (stereo not drawn) [I.b.23, 2-[cyano-(2,6-difluoro-4-pyridyl)amino]-N-(2,2-dimethylcyclobutyl)-5-methyl-thiazole-4-carboxamide]	699	2.5	11	3.76	≥ 80	≥ 80	≥ 80	≥ 80	≥ 80	at least 80%	≥ 80	≥ 80	–	–
Cc1sc(N(C#N)c2cncc(F)c2)nc1C(=O)NC1CCC1(C)C (stereo not drawn) [I.b.18, 2-[cyano-(5-fluoro-3-pyridyl)amino]-N-(2,2-dimethylcyclobutyl)-5-methyl-thiazole-4-carboxamide]	–	–	–	–	–	≥ 80	≥ 80	≥ 80	≥ 80	–	≥ 80	≥ 80	≥ 80	150 to 152
